# Key:
# [1] = system: Ross 308 male broiler chicks; assay: Stress, non-adaptation and adaptation scores from gene signatures (RT-qPCR) in the chicken-paraquat model; format: in vivo
# Text: (§1) All experimental procedures used in the current study were approved by the Ethics and Research Committee of the institution conducting the study. A total of 144 one-day-old Ross 308 male broiler chicks, with an average body weight (BW) of 39 g, were reared from D1 to D21. They were allocated in 72 battery cages (0.5×0.42 m^2) with wire floors (6 chicks/cage) in environmentally controlled rooms. The birds were randomly assigned to treatment pens with similar starting weights. Each cage was equipped with one trough feeder and one drinker. Birds had ad libitum access to mash feeds and water during all study. Average temperature was 33° C. at placement, being reduced by 1° C. every 2 days until 23° C. to provide comfort throughout the study. The lighting program was 18 hours light and 6 hours dark during each 24 hours period throughout the trial.
# The experimental design was a completely randomized factorial design, consisting of a placebo or oxidative stress groups thus two experimental treatments, and 12 replicates per treatment with 6 birds for each replicate. The oxidative stress was applied only from D7 to D14, through the supplementation of a xenobiotic, i.e. paraquat dichloride hydrate (Sigma-Aldrich Company Ltd., Dorset, UK), through the water supply system at the dose of 110 μg/mL. This dosage was achieved by using water containers, individually located in each cage. The control group received standard water (placebo) on the same period using similar containers. A starter and grower diets were provided from D1 to D7, and D8 to D21, respectively. The basal diets were standard wheat/corn-soy-based broiler diets, and were formulated to meet or exceed the nutrient requirements of broilers, as recommended by the NRC (1994). Body weight (BW) was recorded on D1, D7, D14 and D21. On D14 and D21, one bird per pen replicate of each treatment was sacrificed for tissue collection. Briefly, 100 mg of tissue (breast, liver and ileum) were immerged in 2-mL Eppendorf tubes containing 1 mL RNAlater® (Sigma-Aldrich), and kept at −20° C. until analysis. RNA extraction and purification was conducted as described in Example 1.
# To remove traces of contaminant genomic DNA, 2.5 μg of total RNA was treated with 2.5 U of DNasel (ThermoFischer) in a final volume of […] for 15 min at 25° C. Next, DNase was inhibited by addition of EDTA to a final concentration of 8 mM and incubated for 10 min at 70° C. Half of the DNase-treated RNA sample was reverse transcribed (RT), the other half was kept as no-RT control. RNA was denatured in a total volume of 17.6 μL containing 1.25 μg total RNA, 5 mM of nonanucleotide random primer (dN9) and 0.5 μM each dNTPs (Thermofischer). This mix was heated to 70° C. for 5 min in a thermocycler (SimpliAmp™, Life Technologies). Then, RT-AMV buffer (Life Sciences Advance Technology) was added together with 40 U RNAsine (Promega) and 0.25 U AMV Reverse Transcriptase (RT) (Life Sciences Advance Technology), and the volume was adjusted to 21.6 μL. Primers were hybridized by incubation at 25° C. for 15 min, and extension was conducted for 2 hours at 45° C. in thermocycler. No-RT controls were treated in parallel, but addition of AMV-RT enzyme was omitted.
# For the quantitative PCR reaction, 1 μL of cDNA sample diluted to ⅓ was mixed to 2 μL specific primers mix 2.5 mM each and 5 μL of 2× Takyon sybrgreen—No ROX (Eurogentec) in a final volume of 10 μL. Each PCR reaction was set in triplicate. Amplification was conducted on a LC480 LightCycler® Nano (Roche) using 384 well plates and the following program: 1 initial activation cycle at 95° C. for 3 min, then 45 cycles [95° C. for 10 sec; 60° C. for 15 sec; 72° C. for 15 sec]. Specificity of each amplification was monitored by fusion curve technic detecting a single peak corresponding to one single amplicon, consisting in an initial denaturation at 95° C. for 5 sec, followed by ramping from 55 to 95° C. at 0.11° C./sec, and 5 acquisitions per sec. […]
# [2] = format: in vivo, chicken; details: paraquat-treated chickens, 110 μg/mL in water supply D7 to D14
# Text: as §1
# The experimental design was a completely randomized factorial design, consisting of a placebo or oxidative stress groups thus two experimental treatments, and 12 replicates per treatment with 6 birds for each replicate. The oxidative stress was applied only from D7 to D14, through the supplementation of a xenobiotic, i.e. paraquat dichloride hydrate (Sigma-Aldrich Company Ltd., Dorset, UK), through the water supply system at the dose of 110 μg/mL. […] Body weight (BW) was recorded on D1, D7, D14 and D21. […]
# [3] = 4 most conserved genes signature
# [4] = twenty-six genes or four most conserved genes signature, FIG. 5, bottom
compound,measurement,setting,value
"C[n+]1ccc(-c2cc[n+](C)cc2)cc1 [paraquat, paraquat dichloride hydrate]",Adaptation Score (%),"[1]; 4-gene signatures, mean ± SD",0.0 ± 0.0%
same,Non-adaptation Score (%),"[1]; 4-gene signatures, mean ± SD",78.2 ± 29.5%
same,Stress Score (%),"[1]; 4-gene signatures, mean ± SD",69.2 ± 21.6%
same,Adaptation Score (%),[1]; [3],0%
same,Non-adaptation Score (%),[1]; [3],100%
same,Stress Score (%),"[1]; 4 most conserved genes signature (Anxa1, Anxa2, Chac1, Postn)",75%
same,Adaptation Score (%),"[1]; 5-gene signatures, mean ± SD",0.0 ± 0.0%
same,Non-adaptation Score (%),"[1]; 5-gene signatures, mean ± SD",79.4 ± 24.8%
same,Stress Score (%),"[1]; 5-gene signatures, mean ± SD",69.2 ± 18.9%
same,Adaptation Score (%),"[1]; 6-gene signatures, mean ± SD",0.0 ± 0.0%
same,Non-adaptation Score (%),"[1]; 6-gene signatures, mean ± SD",79.8 ± 21.5%
same,Stress Score (%),"[1]; 6-gene signatures, mean ± SD",69.2 ± 16.8%
same,Adaptation Score (%),"[1]; 7-gene signatures, mean ± SD",0.0 ± 0.0%
same,Non-adaptation Score (%),"[1]; 7-gene signatures, mean ± SD",79.9 ± 19.0%
same,Stress Score (%),"[1]; 7-gene signatures, mean ± SD",69.2 ± 15.2%
same,Adaptation Score (%),"[1]; 8-gene signatures, mean ± SD",0.0 ± 0.0%
same,Non-adaptation Score (%),"[1]; 8-gene signatures, mean ± SD",80.0 ± 17.0%
same,Stress Score (%),"[1]; 8-gene signatures, mean ± SD",69.2 ± 13.8%
same,Adaptation Score (%),"[1]; 9-gene signatures, mean ± SD",0.0 ± 0.0%
same,Non-adaptation Score (%),"[1]; 9-gene signatures, mean ± SD",80.0 ± 15.4%
same,Stress Score (%),"[1]; 9-gene signatures, mean ± SD",69.2 ± 12.7%
same,Adaptation Score (%),"[1]; 10-gene signatures, mean ± SD",0.0 ± 0.0%
same,Non-adaptation Score (%),"[1]; 10-gene signatures, mean ± SD",80.0 ± 14.1%
same,Stress Score (%),"[1]; 10-gene signatures, mean ± SD",69.2 ± 11.7%
same,Adaptation Score (%),"[1]; 11-gene signatures, mean ± SD",0.0 ± 0.0%
same,Non-adaptation Score (%),"[1]; 11-gene signatures, mean ± SD",80.0 ± 13.0%
same,Stress Score (%),"[1]; 11-gene signatures, mean ± SD",69.2 ± 10.8%
same,Adaptation Score (%),"[1]; 12-gene signatures, mean ± SD",0.0 ± 0.0%
same,Non-adaptation Score (%),"[1]; 12-gene signatures, mean ± SD",80.0 ± 12.0%
same,Stress Score (%),"[1]; 12-gene signatures, mean ± SD",69.2 ± 10.0%
same,Adaptation Score (%),"[1]; 13-gene signatures, mean ± SD",0.0 ± 0.0%
same,Non-adaptation Score (%),"[1]; 13-gene signatures, mean ± SD",80.0 ± 11.0%
same,Stress Score (%),"[1]; 13-gene signatures, mean ± SD",69.2 ± 9.2%
same,Adaptation Score (%),"[1]; 14-gene signatures, mean ± SD",0.0 ± 0.0%
same,Non-adaptation Score (%),"[1]; 14-gene signatures, mean ± SD",80.0 ± 10.2%
same,Stress Score (%),"[1]; 14-gene signatures, mean ± SD",69.2 ± 8.5%
same,Adaptation Score (%),"[1]; 15-gene signatures, mean ± SD",0.0 ± 0.0%
same,Non-adaptation Score (%),"[1]; 15-gene signatures, mean ± SD",80.0 ± 9.4%
same,Stress Score (%),"[1]; 15-gene signatures, mean ± SD",69.2 ± 7.9%
same,Adaptation Score (%),"[1]; 16-gene signatures, mean ± SD",0.0 ± 0.0%
same,Non-adaptation Score (%),"[1]; 16-gene signatures, mean ± SD",80.0 ± 8.7%
same,Stress Score (%),"[1]; 16-gene signatures, mean ± SD",69.2 ± 7.3%
same,Adaptation Score (%),"[1]; 17-gene signatures, mean ± SD",0.0 ± 0.0%
same,Non-adaptation Score (%),"[1]; 17-gene signatures, mean ± SD",80.0 ± 7.9%
same,Stress Score (%),"[1]; 17-gene signatures, mean ± SD",69.2 ± 6.7%
same,Adaptation Score (%),"[1]; 18-gene signatures, mean ± SD",0.0 ± 0.0%
same,Non-adaptation Score (%),"[1]; 18-gene signatures, mean ± SD",80.0 ± 7.3%
same,Stress Score (%),"[1]; 18-gene signatures, mean ± SD",69.2 ± 6.2%
same,Adaptation Score (%),"[1]; 19-gene signatures, mean ± SD",0.0 ± 0.0%
same,Non-adaptation Score (%),"[1]; 19-gene signatures, mean ± SD",80.0 ± 6.6%
same,Stress Score (%),"[1]; 19-gene signatures, mean ± SD",69.2 ± 5.6%
same,Adaptation Score (%),"[1]; 20-gene signatures, mean ± SD",0.0 ± 0.0%
same,Non-adaptation Score (%),"[1]; 20-gene signatures, mean ± SD",80.0 ± 6.0%
same,Stress Score (%),"[1]; 20-gene signatures, mean ± SD",69.2 ± 5.0%
same,Adaptation Score (%),"[1]; 21-gene signatures, mean ± SD",0.0 ± 0.0%
same,Non-adaptation Score (%),"[1]; 21-gene signatures, mean ± SD",80.0 ± 5.3%
same,Stress Score (%),"[1]; 21-gene signatures, mean ± SD",69.2 ± 4.5%
same,Adaptation Score (%),"[1]; 22-gene signatures, mean ± SD",0.0 ± 0.0%
same,Non-adaptation Score (%),"[1]; 22-gene signatures, mean ± SD",80.0 ± 4.6%
same,Stress Score (%),"[1]; 22-gene signatures, mean ± SD",69.2 ± 3.9%
same,Adaptation Score (%),"[1]; 23-gene signatures, mean ± SD",0.0 ± 0.0%
same,Non-adaptation Score (%),"[1]; 23-gene signatures, mean ± SD",80.0 ± 3.9%
same,Stress Score (%),"[1]; 23-gene signatures, mean ± SD",69.2 ± 3.3%
same,Adaptation Score (%),"[1]; 24-gene signatures, mean ± SD",0.0 ± 0.0%
same,Non-adaptation Score (%),"[1]; 24-gene signatures, mean ± SD",80.0 ± 3.1%
same,Stress Score (%),"[1]; 24-gene signatures, mean ± SD",69.2 ± 2.7%
same,Adaptation Score (%),"[1]; 25-gene signatures, mean ± SD",0.0 ± 0.0%
same,Non-adaptation Score (%),"[1]; 25-gene signatures, mean ± SD",80.0 ± 2.2%
same,Stress Score (%),"[1]; 25-gene signatures, mean ± SD",69.2 ± 1.8%
same,Adaptation Score (%),"[1]; 26-gene signature, mean ± SD",0.0 ± 0.0%
same,Non-adaptation Score (%),"[1]; 26-gene signature, mean ± SD",80.0 ± 0.0%
same,Stress Score (%),"[1]; 26-gene signature, mean ± SD",69.2 ± 0.0%
same,non-adaptation (NA) score,[1]; [4],high
same,stress (S) score,[1]; [4],high
same,body weight change,[2],weight-loss

# Reference: patent US12624395B2, “Process for identifying a stress state and/or for assessing the stress response level in a subject” (ADISSEO FRANCE S.A.S., priority 2019, dated 2026)
